The results in this text go back to ChEMBL document CHEMBL3994585, “Synthesis of α-santonin derivatives for diminutive effect on T and B-cell proliferation and their structure activity relationships” (Eur J Med Chem, 2017).

For series [1], the system named is T-cell. Put plainly: Immunosuppressive activity in Balb/c mouse T cells assessed as ConA-induced cell proliferation at 100 uM after 48 hrs by MTT assay relative to control. The format is functional.
The subject of series [2] is T-cell. Put plainly: Immunosuppressive activity in Balb/c mouse T cells assessed as ConA-induced cell proliferation at 10 uM after 48 hrs by MTT assay relative to control. The series is classed as functional.
Series [3] deals with T-cell. Briefly: Immunosuppressive activity in Balb/c mouse T cells assessed as ConA-induced cell proliferation at 1 uM after 48 hrs by MTT assay relative to control. The format is functional. (In general: Tetrazolium assays rely on reduction of a dye to a coloured formazan, in cell work by metabolically active cells.)
Series [4] concerns B-cell. Put plainly: Immunosuppressive activity in Balb/c mouse B cells assessed as LPS-induced cell proliferation at 100 uM after 48 hrs by MTT assay relative to control. The series is classed as functional.
In series [5] the test system is B-cell. Briefly: Immunosuppressive activity in Balb/c mouse B cells assessed as LPS-induced cell proliferation at 10 uM after 48 hrs by MTT assay relative to control. The format is functional.
Series [6] concerns B-cell. Put plainly: Immunosuppressive activity in Balb/c mouse B cells assessed as LPS-induced cell proliferation at 1 uM after 48 hrs by MTT assay relative to control. The format is functional.
Series [7] concerns T-cell. Put plainly: Cytotoxicity against Balb/c mouse T cells assessed as reduction in cell proliferation at 100 uM after 48 hrs by MTT assay. The series is classed as cell-based.
The subject of series [8] is T-cell. Briefly: Cytotoxicity against Balb/c mouse T cells assessed as reduction in cell proliferation at 10 uM after 48 hrs by MTT assay. The series is classed as cell-based.
The test system of series [9] is T-cell. Put plainly: Cytotoxicity against Balb/c mouse T cells assessed as reduction in cell proliferation at 1 uM after 48 hrs by MTT assay. The format is cell-based.
In series [10] the test system is B-cell. Put plainly: Cytotoxicity against Balb/c mouse B cells assessed as reduction in cell proliferation at 100 uM after 48 hrs by MTT assay. The series is classed as cell-based.
Series [11] has as its system B-cell. Briefly: Cytotoxicity against Balb/c mouse B cells assessed as reduction in cell proliferation at 10 uM after 48 hrs by MTT assay. The series is classed as cell-based.
In series [12] the test system is B-cell. Put plainly: Cytotoxicity against Balb/c mouse B cells assessed as reduction in cell proliferation at 1 uM after 48 hrs by MTT assay. The format is cell-based.
Series [13] has as its target Tumor necrosis factor (Homo sapiens) (UniProt P01375). Put plainly: Inhibition of TNFalpha (unknown origin) at 10 uM relative to control.
Series [14] shares this target. Briefly: Inhibition of TNFalpha (unknown origin) at 5 uM relative to control.
For series [15] the target is unchanged. Put plainly: Inhibition of TNFalpha (unknown origin) at 1 uM relative to control.
Series [16] relates to T-cell. Put plainly: Immunostimulant activity in Balb/c mouse T cells assessed as ConA-induced cell proliferation at 100 uM after 48 hrs by MTT assay relative to control. The series is classed as ADME, cell-based.
Series [17] relates to T-cell. Briefly: Immunostimulant activity in Balb/c mouse T cells assessed as ConA-induced cell proliferation at 10 uM after 48 hrs by MTT assay relative to control. The series is classed as ADME, cell-based.
The test system of series [18] is T-cell. Put plainly: Immunostimulant activity in Balb/c mouse T cells assessed as ConA-induced cell proliferation at 1 uM after 48 hrs by MTT assay relative to control. The series is classed as ADME, cell-based.
Series [19] concerns B-cell. Briefly: Immunostimulant activity in Balb/c mouse B cells assessed as LPS-induced cell proliferation at 100 uM after 48 hrs by MTT assay relative to control. The format is ADME, cell-based.
Series [20] deals with B-cell. Put plainly: Immunostimulant activity in Balb/c mouse B cells assessed as LPS-induced cell proliferation at 1 uM after 48 hrs by MTT assay relative to control. The series is classed as ADME, cell-based.
The test system of series [21] is B-cell. Put plainly: Immunostimulant activity in Balb/c mouse B cells assessed as LPS-induced cell proliferation at 10 uM after 48 hrs by MTT assay relative to control. The format is ADME, cell-based.

Tumor necrosis factor (Homo sapiens), sequence (P01375 whole entry): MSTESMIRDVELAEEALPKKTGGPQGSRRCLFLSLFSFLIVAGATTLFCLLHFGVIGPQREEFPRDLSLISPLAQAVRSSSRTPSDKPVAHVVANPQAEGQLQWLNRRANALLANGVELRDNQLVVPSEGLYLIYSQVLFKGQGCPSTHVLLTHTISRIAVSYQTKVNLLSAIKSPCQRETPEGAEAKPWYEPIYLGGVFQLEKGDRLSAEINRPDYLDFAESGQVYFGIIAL

The inhibition is the change of the read-out against control, counted positive when it falls. The low end stands for little suppression, the high end for strong suppression. With `CC(=O)OC1=C(C)C2=C3OC(=O)C(C)=C3CC[C@@]2(C)CC1`, the Activity is -34.55% in the series on T-cell [1]; -38.23% in the series with T-cell [2]; -30.88% in the series with T-cell [3]; -45.6% in the series on B-cell [4]; -42.3% in the series with B-cell [5]; -42.3% in the series on B-cell [6]. Also, the Activity result in the series on T-cell [7], with T-cell [8], in the series on T-cell [9], in the series on B-cell [10], in the series with B-cell [11] and in the series on B-cell [12] was “Toxic” in each case. Moreover, the inhibition came to 44.9% in series [13], 24.1% in [14] and 3.03% in series [15].
As to `Cc1cc(O)c(C)c2c1CC[C@@H]([C@@H](C)C(=O)O)C2`, the Activity is 1.03% with T-cell [16]; 3.09% in the series on T-cell [17]; 4.12% in the series on T-cell [18]; 20.35% in the series on B-cell [19]; -1.76% in the series with B-cell [5]; 15.92% in the series with B-cell [20]. Also, the Activity entry in the series with T-cell [7], in the series with T-cell [8], with T-cell [9], in the series with B-cell [10], with B-cell [11] and in the series with B-cell [12] was “Toxic” throughout.
Turning to `CC(=O)OCC(C)C1CCc2c(C)cc(OC(C)=O)c(C)c2C1O` (stereo not given), the Activity was 18.55% with T-cell [16]; 17.52% with T-cell [17]; 37.11% with T-cell [18]; 5.3% in the series with B-cell [19]; 1.76% in the series on B-cell [21]; 2.65% in the series on B-cell [20]. Besides, the Activity entry in the series with T-cell [7] is given as “Non-Toxic”; with T-cell [8] it was “Toxic”; in the series on T-cell [9], “Toxic”; with B-cell [10] it was “Non-Toxic”; with B-cell [11], “Toxic”; with B-cell [12], “Toxic”.
For `COc1cc(C)c2ccc([C@@H](C)C(=O)O)cc2c1C`, the Activity is reported as 13.07% in the series with T-cell [16]; -25% in the series with T-cell [2]; 9.52% with T-cell [18]; 4.76% in the series on B-cell [19]; 13.33% in the series on B-cell [21]; 86.66% in the series with B-cell [20]. Also, the Activity result in the series with T-cell [7] is given as “Non-Toxic”; with T-cell [8] it was “Toxic”; in the series on T-cell [9], “Toxic”; with B-cell [10], “Non-Toxic”; in the series with B-cell [11], “Toxic”; in the series with B-cell [12], “Toxic”.
Take `C[C@@H]1C[C@H]2[C@@H]3CCC4=CC(=O)C=C[C@]4(C)[C@@]3(F)[C@@H](O)C[C@]2(C)[C@@]1(O)C(=O)CO`: the inhibition in series [15] amounted to 49.9%.
Turning to `Cc1c(N)c(O)c(C)c2c1CC[C@H]1[C@H](C)C(=O)O[C@@H]21`, the Activity in the series with T-cell [16] was 5.91%; in the series on T-cell [17] it was 36.02%; with T-cell [18], 13.97%; in the series with B-cell [4], -16.66%; with B-cell [21], 33.33%; with B-cell [20] it was 17.52%. Further, the Activity entry in the series on T-cell [7], with T-cell [8], in the series with T-cell [9], with B-cell [10], in the series on B-cell [11] and in the series with B-cell [12] was “Toxic” throughout.
As for `Cc1cc(OCc2cnnn2/C=C/c2ccccc2)c(C)c2c1CC[C@H]1[C@H](C)C(=O)O[C@@H]21`, the Activity in the series on T-cell [1] was -95.12%; in the series with T-cell [2], -95.12%; in the series with T-cell [3], -95.12%; in the series with B-cell [19] it was 48.71%; with B-cell [5], -7.69%; with B-cell [20] it was 36.75%.
